PubChem BioAssay AID1963984 (Molecular Pharmacology Branch, DTP, NCI, 2024)

Test system: 233499-124-R-J3-PDC spheroids with HUVEC/MSC, viability
Experiment: Anticancer human tumor 233499-124-R-J3-PDC patient-derived colon adenocarcinoma cell line growth inhibition [PI3K]
Details: for IC50: curve of first compound; for viability, T/C: stronger effect = lower value
In short: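 Multi-cell spheroids combine tumor cells with HUVEC and human MSCs, treated with targeted agents alone or with inavolisib, alpelisib, duvelisib or copanlisib. Concentrations fall in half-log steps from at or near clinical Cmax, or from 10 microM where Cmax is unknown; viability read-out.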

[1] = second compound 0.00316 µM, first compound 0.000316 µM
[2] = second compound 0.00316 µM, first compound 0.001 µM
[3] = second compound 0.00316 µM, first compound 0.00316 µM
[4] = second compound 0.00316 µM, first compound 0.01 µM
[5] = second compound 0.00316 µM, first compound 0.0316 µM
[6] = second compound 0.00316 µM, first compound 0.1 µM
[7] = second compound 0.01 µM, first compound 0.000316 µM
[8] = second compound 0.01 µM, first compound 0.001 µM
[9] = second compound 0.01 µM, first compound 0.00316 µM
[10] = second compound 0.01 µM, first compound 0.01 µM
[11] = second compound 0.01 µM, first compound 0.0316 µM
[12] = second compound 0.01 µM, first compound 0.1 µM
[13] = second compound 0.0316 µM, first compound 0.000316 µM
[14] = second compound 0.0316 µM, first compound 0.001 µM
[15] = second compound 0.0316 µM, first compound 0.00316 µM
[16] = second compound 0.0316 µM, first compound 0.01 µM
[17] = second compound 0.0316 µM, first compound 0.0316 µM
[18] = second compound 0.0316 µM, first compound 0.1 µM
[19] = second compound 0.1 µM, first compound 0.000316 µM
[20] = second compound 0.1 µM, first compound 0.001 µM
[21] = second compound 0.1 µM, first compound 0.00316 µM
[22] = second compound 0.1 µM, first compound 0.01 µM
[23] = second compound 0.1 µM, first compound 0.0316 µM
[24] = second compound 0.1 µM, first compound 0.1 µM
[25] = second compound 0.316 µM, first compound 0.000316 µM
[26] = second compound 0.316 µM, first compound 0.001 µM
[27] = second compound 0.316 µM, first compound 0.00316 µM
[28] = second compound 0.316 µM, first compound 0.01 µM
[29] = second compound 0.316 µM, first compound 0.0316 µM
[30] = second compound 0.316 µM, first compound 0.1 µM
[31] = second compound 1 µM, first compound 0.000316 µM
[32] = second compound 1 µM, first compound 0.001 µM
[33] = second compound 1 µM, first compound 0.00316 µM
[34] = second compound 1 µM, first compound 0.01 µM
[35] = second compound 1 µM, first compound 0.0316 µM
[36] = second compound 1 µM, first compound 0.1 µM
[37] = second compound 0.00316 µM, first compound 0.316 µM
[38] = second compound 0.00316 µM, first compound 1 µM
[39] = second compound 0.00316 µM, first compound 3.16 µM
[40] = second compound 0.00316 µM, first compound 10 µM
[41] = second compound 0.01 µM, first compound 0.316 µM
[42] = second compound 0.01 µM, first compound 1 µM
[43] = second compound 0.01 µM, first compound 3.16 µM
[44] = second compound 0.01 µM, first compound 10 µM
[45] = second compound 0.0316 µM, first compound 0.316 µM
[46] = second compound 0.0316 µM, first compound 1 µM
[47] = second compound 0.0316 µM, first compound 3.16 µM
[48] = second compound 0.0316 µM, first compound 10 µM
[49] = second compound 0.1 µM, first compound 0.316 µM
[50] = second compound 0.1 µM, first compound 1 µM
[51] = second compound 0.1 µM, first compound 3.16 µM
[52] = second compound 0.1 µM, first compound 10 µM
[53] = second compound 0.316 µM, first compound 0.316 µM
[54] = second compound 0.316 µM, first compound 1 µM
[55] = second compound 0.316 µM, first compound 3.16 µM
[56] = second compound 0.316 µM, first compound 10 µM
[57] = second compound 1 µM, first compound 0.316 µM
[58] = second compound 1 µM, first compound 1 µM
[59] = second compound 1 µM, first compound 3.16 µM
[60] = second compound 1 µM, first compound 10 µM
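Also: spheroids exposed to agents for seven days before readout.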
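For viability, T/C in this document: percent viability relative to DMSO vehicle control taken as 100%.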

CC(=O)c1c(C)c2cnc(Nc3ccc(N4CCNCC4)cn3)nc2n(C2CCCC2)c1=O + COc1c(OCCCN2CCOCC2)ccc2c3n(c(=NC(=O)c4cnc(N)nc4)nc12)CCN3
IC50 (second compound 0.00316 µM): > 100 nM
IC50 (second compound 0.01 µM): > 100 nM
IC50 (second compound 0.0316 µM): > 100 nM
IC50 (second compound 0.1 µM): > 100 nM
IC50 (second compound 0.316 µM): < 0.316 nM
IC50 (second compound 1 µM): < 0.316 nM
viability, T/C [1]: 106%
viability, T/C [2]: 106%
viability, T/C [3]: 121%
viability, T/C [4]: 106%
viability, T/C [5]: 76.5%
viability, T/C [6]: 61%
viability, T/C [7]: 86.5%
viability, T/C [8]: 119%
viability, T/C [9]: 89.2%
viability, T/C [10]: 89.3%
viability, T/C [11]: 83%
viability, T/C [12]: 75.7%
viability, T/C [13]: 90%
viability, T/C [14]: 95.8%
viability, T/C [15]: 94.4%
viability, T/C [16]: 86.8%
viability, T/C [17]: 86.2%
viability, T/C [18]: 86%
viability, T/C [19]: 56.3%
viability, T/C [20]: 78.8%
viability, T/C [21]: 63.7%
viability, T/C [22]: 73.2%
viability, T/C [23]: 61.6%
viability, T/C [24]: 62.4%
viability, T/C [25]: 28.7%
viability, T/C [26]: 32.3%
viability, T/C [27]: 30.3%
viability, T/C [28]: 31.8%
viability, T/C [29]: 27.5%
viability, T/C [30]: 31.2%
viability, T/C [31]: 13.7%
viability, T/C [32]: 4.51%
viability, T/C [33]: 5.25%
viability, T/C [34]: 12.8%
viability, T/C [35]: 10.7%
viability, T/C [36]: 10.2%

CC(C)n1nc(-c2ccc3oc(N)nc3c2)c2c(N)ncnc21 + COc1c(OCCCN2CCOCC2)ccc2c3n(c(=NC(=O)c4cnc(N)nc4)nc12)CCN3
IC50 (second compound 0.00316 µM): > 100 nM
IC50 (second compound 0.01 µM): > 100 nM
IC50 (second compound 0.0316 µM): 54.9 nM
IC50 (second compound 0.1 µM): 5.17 nM
IC50 (second compound 0.316 µM): < 0.316 nM
IC50 (second compound 1 µM): < 0.316 nM
viability, T/C [1]: 98.3%
viability, T/C [2]: 90.8%
viability, T/C [3]: 74.6%
viability, T/C [4]: 80.3%
viability, T/C [5]: 83%
viability, T/C [6]: 65.1%
viability, T/C [7]: 84.1%
viability, T/C [8]: 76.4%
viability, T/C [9]: 87.8%
viability, T/C [10]: 80.5%
viability, T/C [11]: 62.3%
viability, T/C [12]: 60.2%
viability, T/C [13]: 79.9%
viability, T/C [14]: 86.5%
viability, T/C [15]: 73.7%
viability, T/C [16]: 80.6%
viability, T/C [17]: 71%
viability, T/C [18]: 27%
viability, T/C [19]: 77.5%
viability, T/C [20]: 51.7%
viability, T/C [21]: 56%
viability, T/C [22]: 46.8%
viability, T/C [23]: 38.7%
viability, T/C [24]: 16.9%
viability, T/C [25]: 28.4%
viability, T/C [26]: 31.3%
viability, T/C [27]: 33.6%
viability, T/C [28]: 18.6%
viability, T/C [29]: 17.2%
viability, T/C [30]: 9.14%
viability, T/C [31]: 7.93%
viability, T/C [32]: 6.08%
viability, T/C [33]: 9.7%
viability, T/C [34]: 5.56%
viability, T/C [35]: 8.2%
viability, T/C [36]: 2.93%

CC1(C)CCC(CN2CCN(c3ccc(C(=O)NS(=O)(=O)c4ccc(NCC5CCOCC5)c([N+](=O)[O-])c4)c(Oc4cnc5[nH]ccc5c4)c3)CC2)=C(c2ccc(Cl)cc2)C1 + COc1c(OCCCN2CCOCC2)ccc2c3n(c(=NC(=O)c4cnc(N)nc4)nc12)CCN3
IC50 (second compound 0.00316 µM): > 10000 nM
IC50 (second compound 0.01 µM): > 10000 nM
IC50 (second compound 0.0316 µM): > 10000 nM
IC50 (second compound 0.1 µM): 8160 nM
IC50 (second compound 0.316 µM): < 31.6 nM
IC50 (second compound 1 µM): < 31.6 nM
viability, T/C [5]: 93.8%
viability, T/C [6]: 108%
viability, T/C [37]: 113%
viability, T/C [38]: 101%
viability, T/C [39]: 99%
viability, T/C [40]: 100%
viability, T/C [11]: 96.7%
viability, T/C [12]: 104%
viability, T/C [41]: 92%
viability, T/C [42]: 108%
viability, T/C [43]: 101%
viability, T/C [44]: 93.1%
viability, T/C [17]: 96.5%
viability, T/C [18]: 95%
viability, T/C [45]: 86.4%
viability, T/C [46]: 78.7%
viability, T/C [47]: 80.1%
viability, T/C [48]: 61.2%
viability, T/C [23]: 60.6%
viability, T/C [24]: 73.3%
viability, T/C [49]: 55.5%
viability, T/C [50]: 62.2%
viability, T/C [51]: 53.3%
viability, T/C [52]: 49.5%
viability, T/C [29]: 19.8%
viability, T/C [30]: 28.9%
viability, T/C [53]: 15.3%
viability, T/C [54]: 40.2%
viability, T/C [55]: 17.5%
viability, T/C [56]: 26.6%
viability, T/C [35]: 7.27%
viability, T/C [36]: 2.35%
viability, T/C [57]: 15.9%
viability, T/C [58]: 13.9%
viability, T/C [59]: 6.93%
viability, T/C [60]: 13.2%

CCCS(=O)(=O)Nc1ccc(F)c(C(=O)c2c[nH]c3ncc(-c4ccc(Cl)cc4)cc23)c1F + COc1c(OCCCN2CCOCC2)ccc2c3n(c(=NC(=O)c4cnc(N)nc4)nc12)CCN3
IC50 (second compound 0.00316 µM): 5000 nM
IC50 (second compound 0.01 µM): 5780 nM
IC50 (second compound 0.0316 µM): 5030 nM
IC50 (second compound 0.1 µM): 3410 nM
IC50 (second compound 0.316 µM): < 31.6 nM
IC50 (second compound 1 µM): < 31.6 nM
viability, T/C [5]: 84%
viability, T/C [6]: 87.8%
viability, T/C [37]: 101%
viability, T/C [38]: 94.1%
viability, T/C [39]: 79.6%
viability, T/C [40]: 5.08%
viability, T/C [11]: 88.4%
viability, T/C [12]: 93.8%
viability, T/C [41]: 88.9%
viability, T/C [42]: 83%
viability, T/C [43]: 90.1%
viability, T/C [44]: 14.7%
viability, T/C [17]: 89.7%
viability, T/C [18]: 78.3%
viability, T/C [45]: 84.2%
viability, T/C [46]: 74.5%
viability, T/C [47]: 77.6%
viability, T/C [48]: 9.06%
viability, T/C [23]: 50.2%
viability, T/C [24]: 56%
viability, T/C [49]: 54.5%
viability, T/C [50]: 51.5%
viability, T/C [51]: 52.7%
viability, T/C [52]: 12.5%
viability, T/C [29]: 33.7%
viability, T/C [30]: 35.8%
viability, T/C [53]: 38.2%
viability, T/C [54]: 27.2%
viability, T/C [55]: 23.6%
viability, T/C [56]: 2.75%
viability, T/C [35]: 10.5%
viability, T/C [36]: 9.36%
viability, T/C [57]: 6.83%
viability, T/C [58]: 18.9%
viability, T/C [59]: 8.57%
viability, T/C [60]: 1.66%

CNC(=O)c1ccc(N2C(=S)N(c3ccc(C#N)c(C(F)(F)F)c3)C(=O)C2(C)C)cc1F + COc1c(OCCCN2CCOCC2)ccc2c3n(c(=NC(=O)c4cnc(N)nc4)nc12)CCN3
IC50 (second compound 0.00316 µM): > 10000 nM
IC50 (second compound 0.01 µM): > 10000 nM
IC50 (second compound 0.0316 µM): > 10000 nM
IC50 (second compound 0.1 µM): 4120 nM
IC50 (second compound 0.316 µM): < 31.6 nM
IC50 (second compound 1 µM): < 31.6 nM
viability, T/C [5]: 93.8%
viability, T/C [6]: 97.3%
viability, T/C [37]: 97.2%
viability, T/C [38]: 81.9%
viability, T/C [39]: 65.7%
viability, T/C [40]: 54.3%
viability, T/C [11]: 88.1%
viability, T/C [12]: 105%
viability, T/C [41]: 99%
viability, T/C [42]: 87.7%
viability, T/C [43]: 89.9%
viability, T/C [44]: 60.1%
viability, T/C [17]: 101%
viability, T/C [18]: 85.3%
viability, T/C [45]: 98.3%
viability, T/C [46]: 78.1%
viability, T/C [47]: 63.8%
viability, T/C [48]: 50.4%
viability, T/C [23]: 84%
viability, T/C [24]: 53.8%
viability, T/C [49]: 75.2%
viability, T/C [50]: 64.2%
viability, T/C [51]: 47.4%
viability, T/C [52]: 44%
viability, T/C [29]: 33%
viability, T/C [30]: 30.5%
viability, T/C [53]: 44.1%
viability, T/C [54]: 32.3%
viability, T/C [55]: 30.7%
viability, T/C [56]: 12.1%
viability, T/C [35]: 10%
viability, T/C [36]: 24.7%
viability, T/C [57]: 6.89%
viability, T/C [58]: 5.24%
viability, T/C [59]: 10.3%
viability, T/C [60]: 4.27%
